# Entries after “also recorded” stand apart in the source; their conditions may differ.
# Experiments:
# [1] = system: mice with ALF induced by TAA; test: Liver histology in thioacetamide (TAA) induced acute liver failure; assay type: in vivo, C57BL6/J mice; conditions: TAA 500 mg/kg; celastrol 2.5 mg/kg by injection; 3 days after ALF induction
# Protocol: The administration of thiomacetamide (TAA) to induce liver damage is a well-known model of acute liver failure (ALF), see for example, Müller et al., “Thioacetamide-induced cirrhosis-like liver lesions in rats—usefulness and reliability of this animal model.” Exp Pathol. 1988; 34(4):229-36. Groups of C57BL6/J mice received either TAA (1000 mg/kg), TAA (500 mg/kg), or placebo by intraperitoneal injection. The group receiving TAA (500 mg/kg) was divided into two subgroups, and one group received NS by injection and the other group received celastrol by injection (2.5 mg/kg). Mice were sacrificed either one or three days after treatment. The livers of the mice were removed for histological examination (FIGS. 11A-11D).
# [2] = system: mice with ALF induced by TAA; test: Survival in TAA induced acute liver failure; assay type: in vivo, C57BL6/J mice; conditions: TAA 1000 mg/kg and celastrol 3 mg/kg i.p.; examined 3 days or longer; TAA alone 100% mortality
# Protocol: Thiomacetamide (TAA) was administered to C57BL6/J mice to induce liver damage. Groups of at least 6 C57BL6/J mice received either TAA (1000 mg/kg) and a placebo, TAA (1000 mg/kg) and celastrol (3 mg/kg), or placebo only by intraperitoneal injection. Mice were examined for 3 days or longer to determine survival (FIG. 12).
# [3] = system: mice with DOX induced heart disease; test: Survival in doxorubicin (DOX) induced heart disease; assay type: in vivo, C57BL6/J mice; conditions: DOX 20 mg/kg and celastrol 3 mg/kg; after 2 weeks; DOX with placebo 80% mortality
# Protocol: The administration of doxorubicin (DOX; adriamycin) to induce cardiac damage is a well-known model of heart disease see for example, Rosenhoff et al., “Adriamycin-induced cardiac damage in the mouse: a small-animal model of cardiotoxicity.” J Natl Cancer Inst. July 1975; 55(1):191-4; and van der Vijgh et al., “Morphometric study of myocardial changes during doxorubicin-induced cardiomyopathy in mice.” Eur J Cancer Clin Oncol. October 1988; 24(10):1603-8. Doxorubicin was administered to C57BL6/J mice to induce heart damage. Groups of 13-14 C57BL6/J mice received either DOX (20 mg/kg) and a placebo, or DOX (20 mg/kg) and celastrol (3 mg/kg). Mice were examined after 2 weeks to determine survival (FIG. 13).
# [4] = system: stem cell populations in bone marrow (cd34+, cd45+, Sca-1+ cells); test: FACS of cells expressing stem cell markers CD34, CD45, Sca-1 in bone marrow samples; assay type: in vivo, C57BL6/J mice
# Protocol: Mice received either a placebo (PBS) or oridonin (3.0 mg/kg) by intraperitoneal injection.
# [5] = system: NOD-scid mice; test: Adaptive transfer of splenocytes into NOD-scid mice; assay type: in vivo; conditions: splenocytes from celastrol treated NOD mice, 5.3×10^6 cells per mouse via tail vein; at 68 day
# Source text: NOD mice were sacrificed and splenocytes collected from celastrol-treated healthy mice and mice that became diabetic recently were adaptively transferred at 5.3×10^6 cells per mouse into NOD-scid mice (mice free from immune system) via tail vein injection. Blood glucose levels of the mice were monitored starting from 4 weeks after the adaptive transfer was made. All mice (n=4) that received splenocytes from diabetic mice became diabetic between 31-38 days (FIG. 17, Kaplan-Meier graph). In contrast, mice (12/12) that received splenocytes from celastrol treated mice were free of diabetes (hyperglycemic condition) at 68 day (FIG. 17).
# [6] = system: cytokine production in mouse blood; test: Cytokine/chemokine levels in blood serum (Millipore 21-Plex, Luminex); assay type: in vivo, C57BL6/J mice
# Protocol: Mice received either a placebo, celastrol (3.0 mg/kg), or 17-AAG (10 mg/kg) by intraperitoneal injection. Blood samples were taken from all groups of mice at 0, 1, 3, 6, 24, 48, and 72 hours after administration of the placebo, celastrol, or 17-AAG. The blood samples were analyzed for cytokine production, including the production of granulocyte-macrophage colony-stimulating factor (GM-CSF), interferon-gamma (IFN-γ), interleukin-10 (IL-10), interleukin-12 subunit beta (IL-12p40), interleukin-12 heterodimer (IL-12p70), interleukin-12 homodimer (IL-12p80), vascular endothelial growth factor (VEGF), tumor necrosis factor-alpha (TNF-α), keratinocyte derived chemokine (KC), RANTES (Regulated upon Activation, Normal T-cell Expressed, and Secreted; CCL5), monocyte chemotactic protein-1 (MCP 1), macrophage inflammatory protein (MIP1β; CCL4), interleukin-4 (IL-4), interleukin-3 (IL-3), interleukin-2 (IL-2), interleukin-1 beta (IL-1β), interleukin-1 alpha (IL-1α), interleukin-9 (IL-9), interleukin-13 (IL-13), interleukin-17 (IL-17), interleukin-6 (IL-6), and interleukin-5 (IL-5). Blood serum was analyzed using a commercially available kit (e.g., Mouse cytokine/chemokine panel: 21-Plex; Millipore). Blood serum (50 μl) was assayed in duplicate using a commercially available cytokine/chemokine detection kit from Millipore following the protocol given with the product information. The final measurement was performed using a commercially available detector (e.g., computer-operated Luminex 100 IS system) and the results were expressed as pg/ml blood serum sample. Levels of cytokines in blood were quantitated as a concentration of the total volume of the sample.
# [7] = celastrol 2.5 mg/kg i.p., 24 hours post treatment
# [8] = celastrol 3.0 mg/kg i.p., over the course of the experiment
# [9] = celastrol 3.0 mg/kg i.p., throughout the 72 hour time course
# [10] = i.p. celastrol 3.0 mg/kg or 17-AAG 10 mg/kg, 72 hour time course
# [11] = i.p. celastrol 3.0 mg/kg or 17-AAG 10 mg/kg, sampled 0-72 h
# [12] = i.p. celastrol 3.0 mg/kg or 17-AAG 10 mg/kg, sampled 0-72 h, vs placebo control
structure (smiles),measurement,setting,value
CC1=C(O)C(=O)C=C2C1=CC=C1[C@@]2(C)CC[C@@]2(C)[C@@H]3C[C@](C)(C(=O)O)CC[C@]3(C)CC[C@]12C [celastrol],liver histology after ALF induction,[1],regression of liver injury
same,survival,[2],71.4%
same,survival,[3],40%
same,"cd34+ cells, percent of the population of bone marrow cells",[4]; [7],0.2%
same,fold increase of percentage of cd34+ cells in bone marrow over control,[4]; [7],~4 fold
same,fold increase of percentage of cd45+ cells in bone marrow vs untreated control,[4]; [7],about 2 fold
same,fold increase of percentage of cd34+ cells in bone marrow over control,"[4]; celastrol 2.5 mg/kg i.p., 48 hours",~2 fold
same,increase in CD45 population in bone marrow,"[4]; celastrol 2.5 mg/kg i.p., 48 hours post treatment, undetectable in placebo mice",still detectable
same,fold increase in the proportion of Sca-1+ stem cells in bone marrow vs untreated mice,"[4]; celastrol 2.5 mg/kg i.p., by 48 hours",~3 fold
same,fold increase in the proportion of Sca-1+ stem cells in bone marrow vs untreated mice,"[4]; celastrol 2.5 mg/kg i.p., time not printed (before 48 hours)",approximately 4 fold
same,"increase in cd34+, cd45+ and sca-1+ cells compared with GM-CSF",[4]; doses not given,exceeded that observed using GM-CSF
same,recipient mice free of diabetes (hyperglycemic condition),[5],12/12
same,level of GM-CSF compared to placebo control,"[6]; celastrol 3.0 mg/kg i.p., 72 hour time course",elevated again between 24 and 48 hours; also recorded: elevated again 6 to 48 hours
same,level of IL-9 compared to placebo control,"[6]; celastrol 3.0 mg/kg i.p., after peak",remained slightly elevated up to 72 hours
same,level of IL-6 compared to placebo control,[6]; [8],not significantly different
same,level of RANTES compared to placebo control,[6]; [8],not significantly different
same,level of IL-2 compared to placebo control,[6]; [9],slightly elevated
same,level of VEGF compared to placebo control,[6]; [9],slightly elevated
same,level of IL-1α compared to placebo control,"[6]; celastrol 3.0 mg/kg i.p., throughout the experiment",slightly decreased
same,level of IL-13 compared to placebo control,"[6]; celastrol 3.0 mg/kg i.p., up to 48 hours post treatment, risen again by 72 hours",slightly elevated
same,level of IL-17 compared to placebo control,[6]; i.p. celastrol 3.0 mg/kg (throughout 72 hours) or 17-AAG 10 mg/kg (up to 48 hours),slightly elevated
same,level of IFN-γ compared to placebo control,[6]; [10],slightly elevated
same,level of IL-5 compared to placebo control,[6]; [10],not significantly different
same,level of IL-12p40 compared to placebo control,[6]; [10],slightly elevated
same,time by which GM-CSF (elevated pre treatment) declined to placebo control levels,[6]; [11],≤ 6 h
same,time by which IL-3 (slightly elevated pre treatment) declined to placebo control levels,[6]; [11],≤ 1 h
same,time by which IL-4 (slightly elevated pre treatment) declined to placebo control levels,[6]; [11],≤ 1 h
same,time by which MIP1β returned or declined to placebo control levels,[6]; [11],≤ 6 h
same,time by which TNF-α (elevated pre treatment) declined to placebo control levels,[6]; [11],≤ 6 h
same,time of peak level of IL-9 post treatment,[6]; [12],around 3 hours
same,time of peak level of KC post treatment,[6]; [12],around 6 hours

# — patent publication US20110218143A1, “COMPOSITIONS AND METHODS FOR TISSUE REPAIR” (UNIVERSITY OF FLORIDA RESEARCH FOUNDATION, priority 2007, published 2011)
